{"source": "patent US20150307841A1", "about": "“Composition for Promoting Differentiation and Proliferation of Neural Stem Cell and Neural Precursor Cell” (priority 2014, published 2015)", "key": {"[1]": {"tested_on": "memory-deficient model rats", "test": "Y-maze test in ibotenic acid-induced memory-deficient model rats", "type": "in vivo, rat", "from_the_text": "Ibotenic acid is a neurotoxin present in mushrooms and is known to cause powerful damage to neurons when directly injected into the brain of mice or rats. In particular, because senile plaques and neuronal cell death appear in the entorhinal cortex and hippocampus in early Alzheimer's disease patients (Ueki A et al. J Neurol Sci, 1994), memory-deficient model rats were generated by injecting ibotenic acid (IBO) into the entorhinal cortex. The surgical protocol followed Heo H et al.'s method (J Ethnopharmacol, 2009) with some modifications. In the model animals, the injection of ibotenic acid induces cell death not only in the entorhinal cortex but also in the CA and DG regions of the hippocampus and impairs hippocampus-related learning and memory abilities.\nThe 6-week-old rats were anesthetized with equithesin (350 mM pentobarbital sodium, 250 mM chloral hydrate, 85 mM MgSO4 and 40% propylene glycol in 10% ethanol, 2 mL/kg). To induce cell death in the dentate gyrus and hippocampus in addition to the entorhinal cortex, ibotenic acid (1.5 μL per animal, 1 mg/mL) was injected into the entorhinal cortex as follows. The rat was placed in a stereotaxic device (Stoelting Co., Wood Dale, Ill., USA) with the incisor bar 3.4 mm below the interaural line. The needle was positioned 10° right to the midsaggital plane. Then, ibotenic acid was injected at 3 locations into the entorhinal cortex and medial entorhinal cortex at a rate of 0.35 μL/min (first, AP: 8.4 mm, ML: 4.8 mm, DV: 4.6-4.8 mm; second, AP: 8.4 mm, ML: 4.8 mm, DV: 2.6-2.8 mm; third, AP: 8.8 mm, ML: 3.65 mm, DV: 4.8 mm). […]\nThe maze was made of black-colored acryl and was positioned at equal angles. […] Arm entry was recorded when the hind paws were completely placed in the arm. Consecutive entry into 3 arms in an alternative order was defined as successive entries on overlapping triplet sets, and alternation percentage was calculated as the ratio of actual to possible alternations (defined as the total number of arm entries minus 2), multiplied by 100. […]"}, "[2]": {"tested_on": "hippocampal neural precursor cells (NPCs)", "test": "NeuN, GFAP, TUJ1, MAP2 immunostaining of cultured embryonic neural precursor cells (differentiation, neurite outgrowth)", "type": "cell-based, rat", "from_the_text": "Pregnant Sprague-Dawley rats purchased from Orient Animal Breeding Center (a branch of Charles River Laboratories, Gyeonggi-do, Korea) were sacrificed by exposing to CO2 inhalation. Hippocampal neural precursor cells (NPCs) were isolated from the brain of the E16 rat embryo according to the method of Shin M H et al. (Exp Mol Med, 2002) with slight modifications.\nBriefly, hippocampi were aseptically dissected from the embryonic forebrain, mechanically dissociated in Ca^2+/Mg^2+-free Hank's balanced salt solution (HBSS) and then plated at 7×10^5 cells/cm^2 on 60-mm dishes pre-coated with 15 μg/mL poly-L-ornithine and 1 μg/mL fibronectin. The neural precursor cells were cultured in serum-free N2 media supplemented with 10 ng/mL bFGF in 5% CO2 for 3 days and then detached using 0.05% trypsin-ethylenediaminetetraacetic acid (EDTA). The neural precursor cells were plated on 12-mm cover glasses (Bellco Co., Vineland, N.J., USA) and cultured one more day in N2 media supplemented with 10 ng/mL bFGF in 5% CO2 (primary culturing).\nFollowing the primary culturing in (1), in order to confirm the differentiation of the neural precursor cells and the proliferation of the differentiated neurons, the neural precursor cells were cultured on 12-mm cover glasses (Bellco Co., Vineland, N.J., USA) for 4 days in bFGF-free N2 media with 2×10^4 cells/well. For double immunostaining of GFAP and NeuN, and TUJ1 and MAP2, the cells were cultured for only 2 days.\nThe immunostaining was carried out as previously described (Donaldson J G (2001) Immunofluorescence staining Curr Protoc Cell Biol Chapter 4: Unit 4.3) with minor modifications.\nOn the next day, after adding a vehicle (dimethyl sulfoxide) or soyasaponin I at different concentrations of 0.5, 1 or 2 μM to the media, the cells were fixed with 4% PFA in PBS at 4° C. for 4-15 minutes. The cells were permeabilized with 0.5% Triton X-100 for 5 minutes and blocked with 5% normal serum (a mixture of normal donkey, goat and horse sera) for 1 hour at room temperature.\nThe cells were incubated with anti-GFAP (1:1,000, Chemicon), anti-NeuN (1:500, Chemicon), anti-MAP2 (1:2,500, Sigma) and anti-TUJ1 (1:2,000, Sigma) primary antibodies for 1 hour at room temperature. The secondary antibodies and scanning method used were the same as in (2).\nCell counting was performed as reported by Park H J et al. (Phytother Res, 2008). The average length per neurite of the MAP2-positive cells with longer neurites more than double the cell body width was counted from 10-12 confocal laser microscopic fields that were randomly chosen per the cultured cover glass. Primary branches, which directly outgrow from the cell body, were counted when the length of the primary branches was 2 times or longer than the cell body width. All secondary and tertiary branches that come from the primary and secondary branches, respectively, were also counted. The numbers of the branches were also counted from 10-12 confocal laser microscopic fields that were randomly chosen per each cover glass on which the neuronal cells were grown and immunostained with MAP2 antibodies. Analysis of the neurite length and the numbers of the branches was performed with LSM Image Examiner ver. 2.80 (Carl Zeiss)."}}}
{"smiles": "C[C@@H]1O[C@@H](O[C@H]2[C@H](O[C@H]3[C@H](O[C@H]4CC[C@@]5(C)[C@@H](CC[C@]6(C)[C@@H]5CC=C5[C@@H]7CC(C)(C)C[C@@H](O)[C@]7(C)CC[C@]56C)[C@@]4(C)CO)O[C@H](C(=O)O)[C@@H](O)[C@@H]3O)O[C@H](CO)[C@H](O)[C@@H]2O)[C@H](O)[C@H](O)[C@H]1O", "note": "[soyasaponin I]", "values": [{"measurement": "Y-maze number of total entries", "setting": "[1]; 10 mg/kg oral, tests 2 weeks after administration (Experimental Example 2)", "value": "not significantly different"}, {"measurement": "Y-maze spontaneous alterations (decreased memory of IBO group)", "setting": "[1]; Experimental Example 1, tests immediately after administration, group 1 (Soya-I)", "value": "improved"}, {"measurement": "Y-maze spontaneous alterations, increase compared with the non-soyasaponin I-administered group (IBO)", "setting": "[1]; soyasaponin I 10 mg/kg oral, tests 2 weeks after administration (Experimental Example 2)", "value": 78.57, "unit": "%"}, {"measurement": "Neurite length (MAP2) increase compared to the normal group", "setting": "[2]; 1 μM soyasaponin I for 4 days", "value": 2.2, "unit": "fold"}, {"measurement": "Number of NeuN-expressing cells (differentiation into mature neurons)", "setting": "[2]; 0.5 and 1 μM, concentration-dependent", "value": "increased"}, {"measurement": "Astrocytes expressing glial fibrillary acidic protein (GFAP) in the cultures", "setting": "[2]; hippocampal neural precursor cell cultures", "value": "hardly observed"}, {"measurement": "Increase in TUJ1-expressing cells compared to the normal group", "setting": "[2]; soyasaponin I 0.5 μM group", "value": "about 4 fold"}, {"measurement": "Average neurite length", "setting": "[2]; soyasaponin I 1 μM group", "value": "markedly increased"}, {"measurement": "Numbers of both primary and secondary branches", "setting": "[2]; soyasaponin I 1 μM group", "value": "markedly increased"}]}
